Reference: ChEMBL document CHEMBL5537187, “Discovery of N-(1-(6-Oxo-1,6-dihydropyrimidine)-pyrazole) Acetamide Derivatives as Novel Noncovalent DprE1 Inhibitors against Mycobacterium tuberculosis” (J Med Chem, 2024)
In brackets after ≈: the same amount, converted by molar mass. Activity calls are given as the source filed them. The calls are words filed in the database; no cut-off is given here.

Tests used:
[1] = test system: Mycolicibacterium smegmatis; assay: Antimycobacterial activity against Mycobacterium smegmatis […] assessed as inhibition of bacterial growth incubated for 48 hrs by spectrophotometer; format: functional
[2] = in vitro; settings: human, HepG2 cells
Description: Cytotoxicity against human HepG2 cells assessed as reduction in cell viability

[3] = test system: Mycobacterium tuberculosis; assay: microbe, parasite or virus in culture; settings: H37Ra
Description: Antimycobacterial activity against autoluminescent Mycobacterium tuberculosis H37Ra assessed as inhibition of bacterial growth measured after 3 to 7 days by luminescence based analysis

[4] = test system: Mycobacterium tuberculosis; assay: Antimycobacterial activity against Mycobacterium tuberculosis assessed as inhibition of bacterial growth incubated for 24 hrs by alamar blue assay; format: functional
[5] = test system: Mycobacterium tuberculosis; format: functional; settings: H37Ra
[6] = target: T1, Decaprenylphosphoryl-beta-D-ribose oxidase (Mycobacterium tuberculosis (strain ATCC 25618 / H37Rv)) (UniProt P9WJF1); assay: Binding affinity to Mycobacterium tuberculosis DprE1 upto 166.7 microM by biolayer interferometry
T1 sequence (whole entry): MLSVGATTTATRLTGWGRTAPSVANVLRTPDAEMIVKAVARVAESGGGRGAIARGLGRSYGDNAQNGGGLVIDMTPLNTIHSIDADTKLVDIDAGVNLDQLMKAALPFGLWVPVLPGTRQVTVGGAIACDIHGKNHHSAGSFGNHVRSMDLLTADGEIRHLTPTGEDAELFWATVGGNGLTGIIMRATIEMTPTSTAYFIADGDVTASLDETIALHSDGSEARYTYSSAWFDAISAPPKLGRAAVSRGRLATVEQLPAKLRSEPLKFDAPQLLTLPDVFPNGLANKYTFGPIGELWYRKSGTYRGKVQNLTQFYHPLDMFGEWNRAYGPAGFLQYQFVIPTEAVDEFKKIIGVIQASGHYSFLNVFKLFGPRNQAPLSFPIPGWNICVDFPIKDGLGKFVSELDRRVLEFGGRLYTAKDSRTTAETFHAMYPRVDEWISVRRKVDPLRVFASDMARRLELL

[7] = target: T2, Decaprenylphosphoryl-beta-D-ribose oxidase (Mycobacterium tuberculosis (strain ATCC 25618 / H37Rv), UniProt P9WJF1)
T2 sequence (P9WJF1 whole entry): T1 sequence (whole entry)
Description: Binding affinity to Mycobacterium tuberculosis DprE1 assessed as dissociation constant by biolayer interferometry

[8] = Antimicrobial activity against Lactobacillus reuteri assessed as inhibition of microbial growth upto 2 uM; format: toxicity; settings: limosilactobacillus reuteri
[9] = Antimicrobial activity against Akkermansia muciniphila assessed as inhibition of microbial growth upto 2 uM; format: toxicity
[10] = Antimicrobial activity against Clostridium tyrobutyricum assessed as inhibition of microbial growth upto 2 uM; format: toxicity
[11] = Antimicrobial activity against Bifidobacterium pseudocatenulatum assessed as inhibition of microbial growth upto 2 uM; format: toxicity
[12] = test system: Mycolicibacterium smegmatis; assay: Antimycobacterial activity against Mycobacterium smegmatis […] assessed as inhibition of bacterial growth at 10 uM incubated for 48 hrs by spectrophotometer relative to control; format: functional
[13] = test system: Mycolicibacterium smegmatis; assay: Synergistic antimycobacterial activity against Mycobacterium smegmatis assessed as inhibition of bacterial growth at 0.5 times MIC50 incubated for 7 days in presence of 0.5 times MIC50 of rifampicin by checkerboard assay; format: functional, organism-based; settings: time 7.0 day
[14] = Cytotoxicity against human Chang liver cells assessed as inhibition of cell growth; format: toxicity, cell-based
[15] = test system: Mycolicibacterium smegmatis; assay: Synergistic antimycobacterial activity against Mycobacterium smegmatis assessed as inhibition of bacterial growth at 0.5 times MIC50 incubated for 7 days in presence of 0.5 times MIC50 of ethambutol by checkerboard assay; format: functional, organism-based; settings: time 7.0 day

Row | Compound | MIC [1] | IC50 [2] | MIC90 [3] | further results
1 | CCOC(=O)C(=O)Nc1cc(C)nn1-c1nc(C)c(CC)c(=O)[nH]1 | 30.6 µM (≈ 10.2 µg/mL) | 83.8 µM | 30.6 µM (≈ 10.2 µg/mL) | 
2 | C=CCN1C(=O)NC(=O)/C(=C\NNC(=O)c2ccncc2)C1=O |  |  |  | MIC [4]: 9.75 µM (≈ 3.07 µg/mL)
3 | CCc1cc(=O)[nH]c(-n2nc(C)cc2Nc2cccc([N+](=O)[O-])c2)n1 |  |  | 1.56 µM (≈ 0.531 µg/mL) | 
4 | CCc1c(C)nc(-n2nc(C)cc2NC(=O)CCc2ccc(OC)cc2)[nH]c1=O | 18 µM (≈ 7.11 µg/mL) | 129 µM | 6.32 µM (≈ 2.5 µg/mL) | 
5 | Cc1cccc(C(=O)Nc2cc(C)nn2-c2nc3cc(Cl)ccc3c(=O)[nH]2)c1 |  |  | 3.18 µM (≈ 1.25 µg/mL) | 
6 | COc1ccc2c(=O)[nH]c(-n3nc(C)cc3NC(=O)c3cccc(C)c3)nc2c1 |  |  | 6.43 µM (≈ 2.5 µg/mL) | 
7 | Cc1cccc(C(=O)Nc2cc(C)nn2-c2nc(C3CC3)cc(=O)[nH]2)c1 |  |  | 3.12 µM (≈ 1.09 µg/mL) | 
8 | CCc1cc(=O)[nH]c(-n2nc(C)cc2Nc2cccc(C)c2)n1 |  |  | 0.78 µM (≈ 0.241 µg/mL) | 
9 | O=C(Cc1ccccc1)NNC(=O)c1cc([N+](=O)[O-])cc([N+](=O)[O-])c1 |  |  |  | MIC [5]: 1.25 µM (≈ 0.43 µg/mL)
10 | CCc1cc(=O)[nH]c(-n2nc(C)cc2NC(=O)c2cccc(C)c2)n1 |  |  | 1.56 µM (≈ 0.526 µg/mL) | 
11 | Cc1cccc(Nc2cc(C)nn2-c2nc3ccccc3c(=O)[nH]2)c1 |  |  | 0.94 µM (≈ 0.311 µg/mL) | 
12 | CCOc1ccc(CC(=O)Nc2cc(C)nn2-c2nc3c(c(=O)[nH]2)CCC3)cc1 | 18.5 µM (≈ 7.26 µg/mL) | 116 µM | 18.5 µM (≈ 7.26 µg/mL) | 
13 | CCC(CC)C(=O)Nc1nnc(C2CC(=O)N(c3ccc(C)c(Cl)c3)C2)s1 (centres undefined) | > 50 µM | 43 µM |  | 
14 | Cc1cc(NC(=O)c2cccc(C(F)(F)F)c2)n(-c2nc3ccccc3c(=O)[nH]2)n1 |  |  | 1.51 µM (≈ 0.624 µg/mL) | 
15 | Cc1cccc(C(=O)Nc2cc(C)nn2-c2nc3ccc(C)cc3c(=O)[nH]2)c1 |  |  | 0.84 µM (≈ 0.314 µg/mL) | 
16 | CCc1cc(=O)[nH]c(-n2nc(C)cc2NC(=O)c2cccc([N+](=O)[O-])c2)n1 | 0.86 µM (≈ 0.317 µg/mL) | 55.4 µM | 3.12 µM (≈ 1.15 µg/mL) | 
17 | Cc1cccc(C(=O)Nc2cc(C)nn2-c2nc3ccc(F)cc3c(=O)[nH]2)c1 |  |  | 0.83 µM (≈ 0.313 µg/mL) | 
18 | CC(=O)N1N=C(c2c(O)n(-c3ccccc3C)c(=O)[nH]c2=O)CC1c1ccccc1 (centres undefined) | > 50 µM | 21 µM |  | 
19 | CCc1cc(=O)[nH]c(-n2nc(C)cc2NC(=O)c2cccc(F)c2)n1 |  |  | 6.25 µM (≈ 2.13 µg/mL) | 

Row | Compound | MIC [1] | IC50 [2] | MIC90 [3] | further results
20 | CCc1ccc(N2CC(C(=O)Nc3ccccc3C(=O)Nc3nnc(CC)s3)CC2=O)cc1 (centres undefined) | > 50 µM | 165 µM |  | 
21 | Cc1cccc(C(=O)Nc2cc(C)nn2-c2nc3ccc(Cl)cc3c(=O)[nH]2)c1 |  |  | 1.59 µM (≈ 0.626 µg/mL) | 
22 | COc1ccc2nc(-n3nc(C)cc3NC(=O)c3cccc(C)c3)[nH]c(=O)c2c1 |  |  | 0.8 µM (≈ 0.312 µg/mL) | 
23 | CO[C@H]1/C=C/O[C@@]2(C)Oc3c(C)c(O)c4c(O)c(c(/C=N/N5CCN(C)CC5)c(O)c4c3C2=O)NC(=O)/C(C)=C\C=C\[C@H](C)[C@H](O)[C@@H](C)[C@@H](O)[C@@H](C)[C@H](OC(C)=O)[C@@H]1C [RIFAMPIN] |  |  |  | Activity [6]: inactive; Kd [7]: 93600 µM; Activity [8]: Non-Toxic; Activity [9]: Toxic; Activity [10]: Toxic
24 | Cc1nc2ccc(NC(=O)c3cc([N+](=O)[O-])cc([N+](=O)[O-])c3Cl)cc2s1 | > 50 µM | 86.1 µM |  | 
25 | CCc1cc(=O)[nH]c(-n2nc(C)cc2N)n1 |  |  | 6.25 µM (≈ 1.37 µg/mL) | 
26 | NNC(=O)c1ccncc1 [ISONIAZID] |  | > 100 µM | 0.78 µM (≈ 0.107 µg/mL) | Activity [8]: Non-Toxic; Activity [11]: Toxic; Activity [10]: Toxic
27 | CCc1c(C)nc(-n2nc(C)cc2NC(=O)C2CC(=O)N(c3ccc(C)cc3)C2)[nH]c1=O (centres undefined) | 29.8 µM (≈ 12.9 µg/mL) | > 100 µM |  | inhibition at 10 µM [12]: 38%
28 | Cc1cccc(C(=O)Nc2cc(C)nn2-c2nc3ccccc3c(=O)[nH]2)c1 |  | > 100 µM | 1.56 µM (≈ 0.561 µg/mL) | Activity [13]: Active; Activity [14]: Non-Toxic; Activity [8]: Non-Toxic; Activity [11]: Non-Toxic; Activity [9]: Non-Toxic; Activity [15]: Active; Activity [10]: Non-Toxic
29 | CCc1cc(=O)[nH]c(-n2nc(C)cc2Nc2cccc(C(F)(F)F)c2)n1 |  | > 100 µM | 0.78 µM (≈ 0.283 µg/mL) | Activity [13]: Active; Kd [7]: 25 µM; Activity [14]: Non-Toxic; Activity [8]: Non-Toxic; Activity [11]: Non-Toxic; Activity [9]: Non-Toxic; Activity [15]: Active; Activity [10]: Non-Toxic
30 | Cc1cc(NC(=O)c2ccc(C)c(C)c2)n(-c2nc(C)c(C)c(=O)[nH]2)n1 | 1.06 µM (≈ 0.372 µg/mL) | 38.7 µM | 3.56 µM (≈ 1.25 µg/mL) | 
31 | CCc1c(C)nc(-n2nc(C)cc2NC(=O)COc2cccc(C)c2)[nH]c1=O | 7.71 µM (≈ 2.94 µg/mL) | 41.2 µM | 5.98 µM (≈ 2.28 µg/mL) | 
32 | Cc1cccc(C(=O)Nc2cc(C)nn2-c2nc3cc(F)ccc3c(=O)[nH]2)c1 |  |  | 1.66 µM (≈ 0.626 µg/mL) | 
33 | COc1ncnc(Cn2cc(C(=O)NCCO)c3ncc(C)cc32)c1C [TBA-7371] | 2.54 µM (≈ 0.903 µg/mL) | 165 µM | 12.5 µM (≈ 4.44 µg/mL) | 
34 | Cc1cc(NC(=O)c2cccnc2)n(-c2nc3ccccc3c(=O)[nH]2)n1 |  |  | 1.81 µM (≈ 0.627 µg/mL) | 
35 | CCc1cc(=O)[nH]c(-n2nc(C)cc2NC(C)=O)n1 |  |  | 50 µM (≈ 13.1 µg/mL) | 
36 | Cc1cc(NC(=O)Cc2ccccc2)n(-c2nc3ccccc3c(=O)[nH]2)n1 |  |  | 7.22 µM (≈ 2.59 µg/mL) | 
37 | Cc1cc(NC(=O)c2ccc3ccccc3c2)n(-c2nc3c(c(=O)[nH]2)CCC3)n1 | > 50 µM | 144 µM |  | 
38 | CCc1cc(=O)[nH]c(-n2nc(C)cc2NC(=O)C2CCCC2)n1 |  |  | 6.25 µM (≈ 1.97 µg/mL) | 
